Bounds are passed on as bounds.

Results on five compounds are retold here after paper PMC10466336, “Chemical Probe for Imaging of Polo-like Kinase 4 and Centrioles” (JACS Au, 2023).

Assay [1] addresses T1, endogenous Plk4 in HeLa cells expressing Centrin1-GFP (Homo sapiens, UniProt O00444).
T1 construct: live cell imaging of endogenous Plk4; endogenous in cells; host or cells: HeLa cells stably expressing Centrin1-GFP
T1 sequence (O00444 1-970): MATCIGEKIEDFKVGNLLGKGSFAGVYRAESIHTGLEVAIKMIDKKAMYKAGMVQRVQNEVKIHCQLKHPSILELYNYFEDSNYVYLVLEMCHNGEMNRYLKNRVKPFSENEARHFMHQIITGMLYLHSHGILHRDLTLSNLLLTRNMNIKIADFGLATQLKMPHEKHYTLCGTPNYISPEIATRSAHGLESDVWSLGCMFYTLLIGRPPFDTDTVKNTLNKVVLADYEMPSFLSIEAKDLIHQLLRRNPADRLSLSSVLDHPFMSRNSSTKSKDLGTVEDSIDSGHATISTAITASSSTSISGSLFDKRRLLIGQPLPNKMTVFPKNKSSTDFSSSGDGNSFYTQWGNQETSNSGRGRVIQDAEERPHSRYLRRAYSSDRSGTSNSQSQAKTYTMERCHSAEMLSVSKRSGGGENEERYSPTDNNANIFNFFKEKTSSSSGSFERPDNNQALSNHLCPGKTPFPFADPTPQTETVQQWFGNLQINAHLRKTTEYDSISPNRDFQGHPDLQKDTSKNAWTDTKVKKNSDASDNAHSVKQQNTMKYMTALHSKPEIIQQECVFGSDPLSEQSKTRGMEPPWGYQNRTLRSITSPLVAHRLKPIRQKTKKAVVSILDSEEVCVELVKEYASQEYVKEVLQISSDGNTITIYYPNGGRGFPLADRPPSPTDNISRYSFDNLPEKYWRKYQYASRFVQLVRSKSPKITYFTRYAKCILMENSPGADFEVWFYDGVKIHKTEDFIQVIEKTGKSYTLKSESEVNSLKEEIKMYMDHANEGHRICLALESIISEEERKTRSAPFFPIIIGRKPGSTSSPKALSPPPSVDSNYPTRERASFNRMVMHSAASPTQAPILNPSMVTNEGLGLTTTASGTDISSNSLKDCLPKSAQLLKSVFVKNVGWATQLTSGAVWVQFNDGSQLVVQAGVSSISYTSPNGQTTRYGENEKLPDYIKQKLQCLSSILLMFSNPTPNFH
Nature of the assay: Live- and fixed-cell confocal/STED imaging of endogenous Plk4. The class given is cell-based. Particulars: added to live cells in culture, 1 µM (Figure S1).

The target in assay [2] is T2, Plk4 kinase domain (Homo sapiens, UniProt O00444).
T2 construct: Plasmids encoding fragments of Plk4 kinase domain (2-275) with 6xHis-tag were cloned in pET system vectors; made in house; host or cells: E. coli BL21 gold (DE3)
T2 sequence (O00444 2-275): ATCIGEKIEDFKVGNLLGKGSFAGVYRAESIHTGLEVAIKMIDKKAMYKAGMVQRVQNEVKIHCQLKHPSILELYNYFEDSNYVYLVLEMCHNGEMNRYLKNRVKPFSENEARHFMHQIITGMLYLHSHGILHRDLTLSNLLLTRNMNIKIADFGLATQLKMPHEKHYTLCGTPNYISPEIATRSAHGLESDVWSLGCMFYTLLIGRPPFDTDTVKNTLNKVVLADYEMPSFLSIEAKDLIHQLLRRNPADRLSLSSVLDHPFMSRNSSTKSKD
The experiment in a line: Competition binding assay based on fluorescence polarization (tracer Alexa488-PEG-N-centrinone). Particulars: Alexa488-PEG-N-centrinone 1 nM, Plk4-KD 5 nM. The source says: Moreover, we substituted the basic acetyl-piperazine nitrogen in compounds (1 and 2a) with an acetyl-piperidine, to avoid probe protonation and accumulation in endolysosomal compartments (Figure S1A, B).[23] […] These probes were characterized first in vitro by measuring their fluorogenicity in the presence of the 6xHis-tagged Plk4 kinase domain (KD) (Table 1). […] Next, we measured the binding affinities of the probes to the Plk4 kinase domain via a competition binding assay based on fluorescence polarization. […]
1.3.6 Fluorescence Polarization assay & competition assay […]
plate (Greiner Bio-One). Upon mixture of protein and ligand, the plate was incubated for 30 min at room temperature followed by fluorescence polarization measurements by a plate reader (TECAN Spark® 20M) using 485 nm as excitation wavelength (bandwidth 20 nm) and 535 nm as emission wavelength (bandwidth 25 nm). The obtained fluorescence polarization values from each well were plotted against the concentration of the protein. The apparent Kd values were obtained by fitting the curve to the […]
FP = FP + FPmax ― FPmin (C + C + K ― (C + C + K )2 ― 4C C ) […]
protein should be around the Kd of the tracer to ensure that enough free protein that can bind the […]
competitor, and enough signal change coming from binding and unbinding of the tracer. The solution of the tracer and protein was titrated with increasing amounts of competitors, in our case SiR650- and […]
The mixture was then incubated for an hour at room temperature and the FP was then measured on a plate reader using the same conditions as mentioned before. From the obtained FP values, we have calculated the amount of free protein in the solution for each concentration of competitor using the equation of the single-site binding isotherm:
Pfree = Kd_tracer FP ― FP
Where Pfree is concentration of free protein, Kd tracer represents the previously determined binding affinity
On the technique in general: Polarisation of emitted light reports the rotation of a fluorescent probe.

In assay [3] the target is T3, 6xHis-tagged Plk4 kinase domain (KD) (Homo sapiens, UniProt O00444).
T3 construct: Plasmids encoding fragments of Plk4 kinase domain (2-275) with 6xHis-tag were cloned in pET system vectors; made in house; host or cells: E. coli BL21 gold (DE3)
T3 sequence (O00444 2-275): T2 sequence (O00444 2-275)
The experiment in a line: Estimation of fluorescence increase (fluorogenicity) with Plk4 kinase domain versus BSA. Particulars: mean of F(+Plk4KD)/F(+BSA) and standard deviation, N = 3; probe 3 µM, 1 h 37 °C. The source says:
Moreover, we substituted the basic acetyl-piperazine nitrogen in compounds (1 and 2a) with an acetyl-piperidine, to avoid probe protonation and accumulation in endolysosomal compartments (Figure S1A, B).[23] This yielded a second generation of centrinone-based probes (compounds 2b–d). These probes were characterized first in vitro by measuring their fluorogenicity in the presence of the 6xHis-tagged Plk4 kinase domain (KD) (Table 1). […] Next, we measured the binding affinities of the probes to the Plk4 kinase domain via a competition binding assay based on fluorescence polarization. […]
1.3.5 Estimation of fluorescence increase
The probes were analysed as described in Lukinavičius et al. 2014 1. Briefly, SiR650 or SiR595- […]
purified Plk4 kinase domain (10 µM in 20 mM Tris, 200 mM NaCl at pH 7.5) or to a bovine serum albumin (BSA) (Sigma) solution (0.2 mg/mL in 20 mM Tris, 200 mM NaCl at pH 7.5). Final concentration of the probe was 3 µM. The samples were incubated for 1 h at 37 °C, and fluorescence was measured in a 96-well plate (Greiner Bio-One) on a plate reader (TECAN Spark® 20M).
Fluorescence emission was recorded from 570 nm to 750 nm for SiR595 probes, and 630 nm to 750 nm for SiR650 while exciting at 550 nm ± 10 nm for SiR595 probes and at 610 ± 10 nm for SiR650 probes.
A fluorescence excitation scan was recorded by measuring the emission at 660 ± 10 nm for SiR595 and 720 ± 10 nm for SiR650 probes, while exciting from 500 nm to 640 nm for SiR595 probes and from […]

In assay [4] the test system is HeLa cells expressing Centrin1-GFP. The experiment in a line: Centriole phenotypic scoring (number of Centrin1-GFP foci). The class given is cell-based, human. Particulars: 24 h incubation, scoring of Centrin1-GFP foci. The source says: Having established that SiR595-centrinone (2d) can successfully label overexpressed Plk4, we wanted to investigate whether it also marks endogenous Plk4. […] In contrast, partial Plk4 inhibition leads to increased levels of centriolar Plk4 due to partial interference with protein degradation mediated by autophosphorylation, overall resulting in centriole overamplification.[8] Therefore, both under-duplication and overamplification of centrioles can be used as a proxy for SiR595-centrinone binding to endogenous Plk4. […] We conclude that the failure of SiR595-centrinone (2d) to detect endogenous Plk4 is due to the low binding affinity of the probe in combination with low protein levels. […] In the second step, the Plk4-bound molecule is specifically reacted with an appropriate fluorogenic tetrazine dye.[27]−[33] This strategy was applied previously successfully to label various protein targets in live and fixed cells,[30],[32],[34]−[38] and we reasoned that a smaller and potentially more permeable Cen-TCO (3) derivative would likewise enable more efficient labeling of endogenous Plk4.
We conjugated trans-cyclooctene to the previously obtained compound (4) to obtain Cen-TCO (3) using the synthetic route outlined in Scheme S2. The resulting Cen-TCO (3) reacted with an appropriate tetrazine, such as SiR650-TetH (4a) (Figure S4A). The reaction was followed by LC-MS, and the data confirmed quantitative conversion of Cen-TCO (3) to the appropriate cycloaddition product Cen-Click-SiR650 (Figure S4A, D). […] To assess the phenotype caused by Cen-TCO (3), we incubated HeLa cells expressing Centrin1-GFP with different concentrations of Cen-TCO (3) for 24 h, followed by scoring of Centrin1-GFP foci numbers (Figure S5B). […] Despite the high unspecific background signal, a clear focus could be detected at centrioles (Figure 4B). […] The fwhm of the circular signal in this case was 368 ± 26 (N = 6) (Figure S7B), which corresponds to the size measured with overexpressed GFP-Plk4(K41M) (see Figure 3D), and approximately that of the torus region surrounding the centriole.[40] […]

`COc1c(Nc2cc(C)[nH]n2)nc(Sc2ccc(S(=O)(=O)Cc3cccc([N+](=O)[O-])c3F)cc2F)nc1N1CCN(CC(=O)NCCOCCNC(=O)c2ccc(C(=O)[O-])c(C3=C4C=CC(=[N+](C)C)C=C4[Si](C)(C)c4cc(N(C)C)ccc43)c2)CC1` [compound 1]: the “unspecific labeling in live human cells” value in assay [1] is recorded as “high unspecific labeling”. Also, the Kd (usually the free concentration of one partner at which half of the binding sites on the other are occupied at equilibrium, for simple one-to-one binding) in assay [2] was 48 ± 6 nM. Further, in assay [3], the FPIk4/FBSA is on record as 4 ± 1.

`COc1c(Nc2cc(C)[nH]n2)nc(Sc2ccc(S(=O)(=O)Cc3cccc([N+](=O)[O-])c3F)cc2F)nc1N1CCC(CC(=O)NCCOCCNC(=O)c2ccc(C(=O)O)c(C3=C4C=CC(=N)C=C4[Si](C)(C)c4cc(N)ccc43)c2)CC1` [2b] displayed a Kd in assay [2] of 14 ± 4 nM. Moreover, the FPIk4/FBSA in assay [3] is 23 ± 1.

`COc1c(Nc2cc(C)[nH]n2)nc(Sc2ccc(S(=O)(=O)Cc3cccc([N+](=O)[O-])c3F)cc2F)nc1N1CCN(CC(=O)NCCOCCNC(=O)c2ccc(C(=O)O)c(C3=C4C=CC(=N)C=C4[Si](C)(C)c4cc(N)ccc43)c2)CC1` [2a]: the “unspecific labeling in live human cells” value in assay [1] was “high unspecific labeling”. In addition, the Kd in assay [2] is 26 ± 3 nM. Also, in assay [3], the FPIk4/FBSA is 10 ± 1.

Regarding `COc1c(Nc2cc(C)[nH]n2)nc(Sc2ccc(S(=O)(=O)Cc3cccc([N+](=O)[O-])c3F)cc2F)nc1N1CCOCC1` [centrinone, reference compound], the “concentration causing the centriole under-duplication phenotype” value in assay [4] is not below 250 nM.

`COc1c(Nc2cc(C)[nH]n2)nc(Sc2ccc(S(=O)(=O)Cc3cccc([N+](=O)[O-])c3F)cc2F)nc1N1CCC(CC(=O)NCCCCNC(=O)c2ccc(C(=O)O)c(C3=C4C=CC(=N)C=C4[Si](C)(C)c4cc(N)ccc43)c2)CC1` [2c] registered a dissociation constant (Kd) in assay [2] of 23 ± 6 nM. Further, the FPIk4/FBSA in assay [3] was 14 ± 2.
